Reference: patent US6432957B1, “Piperazine derivative” (Kowa Co., Ltd., priority 2001, dated 2002)
Counter-ions that a name gives are not always drawn.

Test system: U937 cells adhered to HUVEC stimulated by TNFα
Test: Inhibitory effect on cell adhesion (U937 adhesion to TNFα-stimulated HUVEC)
Assay type: cell-based
Conditions: Homo sapiens, read-out: Inhibitory activity against cell adhesion, Percent inhibition (%); for inhibition at 1 µM: 1 μM test agent; for inhibition at 10 µM: 10 μM test agent
Procedure: (Inhibitory Effect on Cell Adhesion)
This test was conducted by reference to the method of Ross et al. (J. Biol. Chem., 267, 8537-8543 (1992)). More specifically, after human umbilical venous endothelial cells (HUVEC) were cultured on a 48-well plate to confluent growth, TNFα was added thereto. Upon elapsed time of 5 hours after the addition, U937, which is a human monocytic/histocytic cell fluorescence-labeled with PKH2 (product of Dainippon Pharmaceutical Co., Ltd.), was added in a proportion of 1×10^6 cells per well. After the plate was left at rest at room temperature for 1 hour, unadhered U937 was washed out and lysed in 1% Triton X-100 to measure a remaining fluorescence intensity (excitation wavelength: 480 nm; measuring wavelength: 530 nm). HUVEC and U937 were cultured in EGM-2 (product of Sanko Junyaku K.K.) and 10% FCS-containing RPMI1640, respectively. Each test agent was added to HUVEC upon the addition of TNFα and to U937 24 hours prior to the cell adhesion test. The inhibitory activity was calculated out according to the equation [100−(C−B)/(A−B)×100 (%)], wherein A is the number of U937 cells adhered to HUVEC stimulated by TNFα when no test agent was added, B is the number of U937 cells adhered to HUVEC not stimulated by TNFα when no test agent was added, and C is the number of U937 cells adhered to HUVEC stimulated by TNFα when the test agent was added. As control compounds, Test Compound 1 described in Japanese Patent Application Laid-Open No. 9-143075 and dilazep described in Japanese Patent Application Laid-Open No. 11-92382 were simultaneously evaluated.

| SMILES | inhibition at 1 µM [%] | inhibition at 10 µM [%] |
| --- | --- | --- |
| COc1cc(C(=O)OCCCN2CCCN(CCCOC(=O)c3cc(OC)c(OC)c(OC)c3)CC2)cc(OC)c1OC [Dilazep, dilazep, reference compound] | 12 | 25 |
| COc1cc(-c2cc(CN3C[C@@H](C)N(Cc4ccnc(-c5cc(OC)c(OC)c(OC)c5)c4)[C@@H](C)C3)ccn2)cc(OC)c1OC [Example 1, cis-N,N′-bis[[2-(3,4,5-trimethoxyphenyl)pyridin-4-yl]methyl]-2,6-dimethylpiperazine tetrahydrochloride] | 76 | 78 |
| COc1cc(-c2cc(CN3C[C@H](C)N(Cc4ccnc(-c5cc(OC)c(OC)c(OC)c5)c4)C[C@H]3C)ccn2)cc(OC)c1OC [Example 2, trans-N,N′-bis[[2-(3,4,5-trimethoxyphenyl)-pyridin-4-yl]methyl]-2,5-dimethylpiperazine tetrahydrochloride] | 42 | 64 |
| COc1cc(-c2cc(CN3CCN(Cc4ccnc(-c5cc(OC)c(OC)c(OC)c5)c4)C(CO)C3)ccn2)cc(OC)c1OC (centres unmarked) [Example 3, N,N′-bis[[2-(3,4,5-trimethoxyphenyl)pyridin-4-yl]methyl]-2-hydroxymethylpiperazine dimaleate] | 34 | 90 |
| COc1cc(-c2cc(CN3CCN(Cc4ccnc(-c5cc(OC)c(OC)c(OC)c5)c4)C(=O)C3)ccn2)cc(OC)c1OC [Example 4, 2-oxo-N,N′-bis[[2-(3,4,5-trimethoxyphenyl)-pyridin-4-yl]methyl]piperazine 2.5 hydrochloride] | 60 | 79 |
| COc1cc(-c2cc(CN3CCN(Cc4ccnc(-c5cc(OC)c(OC)c(OC)c5)c4)[C@@H](C)C3=O)ccn2)cc(OC)c1OC [Example 5, (3S)-3-methyl-2-oxo-N,N′-bis[[2-(3,4,5-trimethoxyphenyl)pyridin-4-yl]methyl]piperazine 2.5 hydrochloride] | 51 | 85 |
| COc1cc(-c2cc(CN3CCN(Cc4ccnc(-c5cc(OC)c(OC)c(OC)c5)c4)[C@@H](C(C)C)C3=O)ccn2)cc(OC)c1OC [Example 6, (3S)-3-isopropyl-2-oxo-N,N′-bis[[2-(3,4,5-trimethoxyphenyl)pyridin-4-yl]methyl]piperazine sesqui-hydrochloride] | 63 | 77 |
| COc1cc(-c2cc(CN3CCN(Cc4ccnc(-c5cc(OC)c(OC)c(OC)c5)c4)[C@H](C(C)C)C3=O)ccn2)cc(OC)c1OC [Example 7, (3R)-3-isopropyl-2-oxo-N,N′-bis[[2-(3,4,5-trimethoxyphenyl)pyridin-4-yl]methyl]piperazine tri-hydrochloride] | 51 | 70 |
| COc1cc(-c2cc(CN3CCN(Cc4ccnc(-c5cc(OC)c(OC)c(OC)c5)c4)[C@@H](CC(C)C)C3=O)ccn2)cc(OC)c1OC [Example 8, (3S)-3-(2-methylpropyl)-2-oxo-N,N′-bis[[2-(3,4,5-trimethoxyphenyl)pyridin-4-yl]methyl]piperazine 2.5 hydrochloride] | 63 | 79 |
| COc1cc(-c2cc(CN3CCN(Cc4ccnc(-c5cc(OC)c(OC)c(OC)c5)c4)[C@@H](Cc4ccccc4)C3=O)ccn2)cc(OC)c1OC [Example 9, (3S)-3-benzyl-2-oxo-N,N′-bis[[2-(3,4,5-trimethoxyphenyl)pyridin-4-yl]methyl]piperazine sesqui-hydrochloride] | 38 | 86 |
